Entries after “also recorded” stand apart in the source; their conditions may differ.
Experiments:
[1] = biological target: T1, GFP-PEA-15 (Mus musculus, UniProt Q62048); experiment: Detection of the interaction of 6D6-1 with GFP-PEA-15 by FRET in 3T3-GFP-PEA-15 cells; assay type: cell-based; conditions: 6D6-1 tested at 10^-4 M and 10^-5 M, 60 minutes, excitation 465 nm
T1 construct: expressed in transfected cells
Description: The cell line 3T3 expressing the GFP-PEA-15 (3T3-GFP-PEA-15 cell) was obtained as described by FORMSTECHER et al. (Dev. Cell., 2001, 1:239) by transfection of NIH3T3 cells with a EGFP-PEA-15 plasmide obtained as described by KITSBERG et al. (J. Neurosci., 1999, 19: 8244).
Clones resistant to the neomycin (G418) were selected and cultivated in a DMEM (Roche) medium supplemented with 10% of foetal calf serum, 2 mM of glutamine, penicillin (5 IU/ml) and streptomycin ([…]).
The GFP-PEA-15 protein expression was checked by the measurement of the fluorescence of the living cells and a WESTERN transfer analysis with an anti-GFP antibody (Roche, cat. No. 1,814,460 mixture of two monoclonal antibodies obtained from a mouse (clone 7.1 and clone 13.1)) and an anti-PEA-15 (rabbit polyclonal antibody, Sharif et al., Neuroscience, 126: 263, 2004).
The 3T3-GFP-PEA-15 cells are then cultivated up to confluence in a HAM-F12 medium comprising penicillin (10 000 U/ml)/streptomycin (10 000 μg/ml), 7% of foetal calf serum (BIOWHITTAKER) before the fluorescence resonance energy transfer (FRET) experiences. […]
After adding the 6D6-1 compound, the cells are gently agitated (100 rpm) for 60 minutes before the fluorescence read-out, in order to enable the compounds to diffuse and enter into the cells. […]
The GFP protein excited at 465 nm emits a fluorescence signal at 535 nm.

[2] = biological target: T2, GST-PEA-15 fusion protein (Mus musculus, UniProt Q62048); experiment: 6D6-1/PEA-15 protein interaction: fluorescence of glutathione Sepharose beads carrying GST-PEA-15; assay type: binding
T2 construct: made in house
Description: The GST-PEA-15 fusion protein was obtained according to the protocol described by Kitsberg et al. (J. Neurosci, 1999, 19: 8244).
The GST-PEA-15 fusion proteins were recovered after lysis of bacteria and were incubated together with a Sepharose bead covered with glutathione.
The beads thus obtained are incubated in the presence of 1 or 5 μM of 6D6-1, in a 20 mM Tris-HCl, pH 7.4; 100 mM NaCl; 1 mM MgCl2; 1% Triton X-100 buffer).
After a series of three washings, the beads are dried on a cellulose membrane and the fluorescence is quantified by means of a phosphoimager (Biorad), by measuring the fluorescence of the lissamine with excitation at 543 nm and measurement of the emission at 590 nm.
The results are the average of three independent experiences.

[3] = test system: ERK; experiment: Effect of 6D6-1 on ERK and PEA-15 subcellular location in primary astrocyte cultures (confocal microscopy); assay type: cell-based, mouse; conditions: primary astrocytes, 24 hours without serum; 50 μM 6D6-1 for 2 hours 15 minutes
Description: Primary astrocyte cultures were prepared from cortex and striatum of mouse embryos (day 16) as described by ARAUJO et al. (J. Biol. Chem., 1993, 268: 5911).
The primary astrocyte cultures were maintained for 24 hours in the absence of serum, a condition known to induce a mainly cytoplasmic location of ERK.
The cells were then treated or not with 50 μM of the 6D6-1 compound for 2 hours 15 minutes.
The subcellular location of ERK and PEA-15 was observed by confocal microscopy after labeling the cells with fluorescent antibodies.
The cells were washed twice with PBS (Dulbecco phosphate saline buffer, without CaCl2 nor MgCl2, Sigma), and fixed with 4% paraformaldehyde in PBS (pH 7.5), for 15 minutes, then washed twice with PBS comprising 0.1 M of glycine, at ambient temperature.
Then, the cells were incubated for 5 minutes in PBS containing 0.2% of X-100 triton.
The non-specific sites were blocked with PBS containing 10% of normal goat serum (NGS) for one hour at ambient temperature.
Then the cells were incubated overnight at 4° C. with PEA-15 specific antibodies (rabbit polyclonal antibody, Sharif et al., Neuroscience, 2004) or ERK specific antibodies (rabbit polyclonal antibody, Santa Cruz K-23 (ref. Sc-94)), diluted in PBS containing 1.5% of NGS. […]

T2 sequence (Q62048 whole entry, the tested form may be a part): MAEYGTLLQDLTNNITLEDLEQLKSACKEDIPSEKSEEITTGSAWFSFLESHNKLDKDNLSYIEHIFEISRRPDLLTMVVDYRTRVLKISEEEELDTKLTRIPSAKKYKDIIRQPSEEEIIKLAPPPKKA
T1 sequence (Q62048 whole entry): as the sequence (Q62048 whole entry, the tested form may be a part) above

Q: What does the source list for “1-methyl-piperidin-4-His(Bzl)-Lys(o-Lissamine)-1-methyl-1H-imidazol-4-yl)-acetamide [Compound 6D6-1]”?
A: fluorescence resonance energy transfer (FRET) on binding to GFP-PEA-15, fluorescence signal at 590 nm [1]: enables a fluorescence resonance energy transfer (FRET); average intensity of fluorescence of beads carrying GST-PEA-15 ([2]; 1 or 5 μM 6D6-1, excitation 543 nm, emission 590 nm, average of three independent experiences): depends upon the concentration of the compound; interaction with PEA-15 protein ([2]; general statement of the inventors' observation): able to interact in a specific way with a PEA-15 protein; subcellular location of ERK [3]: relocation of the ERK protein in the core; also recorded: relocation of ERK in the nucleus; subcellular location of PEA-15 [3]: remains cytoplasmic
